Source: PMC10703858, “A simple and green capillary electrophoresis-mass spectrometry method for therapeutic drug monitoring of colistin in clinical plasma samples” (Heliyon, 2023)
Read-outs that look alike come from different tables or passages of the source. Positions of bridges follow the written chain, without caps; N, C: chain ends. Non-standard residues stand in square brackets, D forms with d. Residues, ends and D or L forms follow the SMILES beside them. *: point of attachment. Octanoyl(6-Me) = CCC(C)CCCCC(=O)*; Dab = NCC[CH](N)C(=O)O

Tests used:
[1] = pediatric patients; sum of CST A and CST B; cited from earlier work
[2] = short-term (autosampler) stability in plasma QC samples; details: n = 5
Procedure: (§1) Quality control (QC) samples were prepared at three concentration levels: i.) low QC: 0.28 μg mL^−1 (CST A sulfate) and 0.47 μg mL^−1 (CST B sulfate); ii.) medium QC: 2.79 μg mL^−1 (CST A sulfate) and 4.71 μg mL^−1 (CST B sulfate); and iii.) high QC: 6.51 μg mL^−1 (CST A sulfate) and 10.99 μg mL^−1 (CST B sulfate). The calibration curve and the QC sample solutions were prepared by mixing 30 μL of the CST sulfate standard at the desired concentration level with 30 μL of demineralized water or plasma and 120 μL of the IS working solution. After being vortexed and left to rest at room temperature for 10 min, the samples were centrifuged at 30,000×g for 10 min. Following this action, supernatant was immediately injected from a CE vial. Every sample underwent three measurements.
(§2) During the validation process, two types of stability were assessed: freeze and thaw stability (three cycles of freezing and thawing at room temperature) and short-term stability (sample kept in an autosampler for 24 h at laboratory temperature). In order to compare the findings from the measurements of QC samples stored according to the guidelines with those of newly prepared QC samples, stability experiments were conducted.

[3] = plasma CST concentration in critically ill patient (CE-MS/MS, TDM); assay type: in vivo, human; details: CST A + CST B = 100 %, reference standard was 37.2/62.8 %
Procedure: Clinical plasma samples from two critically ill patients were obtained from the Clinic of Hematology and Transfusiology of St Cyril and Methodius Hospital in Bratislava. After collection, the samples were stored at −80 °C. Before the analysis, the samples were thawed at laboratory temperature, vortexed, and then, 30 μL of the plasma sample was mixed with 30 μL of demineralized water and 120 μL of the IS working solution. […] Following this action, the supernatant was injected directly into the CE system from a CE vial.
The application potential of the validated CE-MS method was tested on the plasma samples obtained from the Clinic of Hematology and Transfusiology of St Cyril and Methodius Hospital in Bratislava. Samples were collected from two critically ill patients treated with multiple intravenous antibiotics and antifungals. The samples were collected before and 30 min after the intravenous (i.v.) administration of the drugs. Patient 1 was treated with meropenem, trimethoprim/sulphamethoxazol, and CST. […] The measured plasma CST concentration of patient 1 before drug administration was 0.82 ± 0.02 μg mL^−1 ([…], n = 3). […]
As previously stated, CST is a heterogeneous substance and, as such, differs not only between producers but also across batches produced by the same manufacturer. […] In clinical plasma samples, a reverse percentage representation of the CST forms was detected. […]

[4] = system: plasma proteins (especially acidic alpha glycoprotein); details: cited from earlier work
[5] = freeze and thaw stability in plasma QC samples; details: n = 5
Procedure: as §1, §2

[6] = set-up: method as in PMID 30500757; details: used topically and orally; cited from earlier work

Question: Which “mean steady-state concentration of CST in plasma, median” value [1] does the source give for Colistin [CST] here?
Answer: 2.92 µg/mL

Question: Which results are given for CCC(C)CCCCC(=O)NC(CCN)C(=O)NC(C(=O)NC(CCN)C(=O)NC1CCNC(=O)C(C(C)O)NC(=O)C(CCN)NC(=O)C(CCN)NC(=O)C(CC(C)C)NC(=O)C(CC(C)C)NC(=O)C(CCN)NC1=O)C(C)O (stereo not drawn) [CST A, colistin A] ({Octanoyl(6-Me)}-[Dab]T[Dab][Dab][Dab]LL[Dab][Dab]T; lactam 4-C; configuration not given here)?
Answer: Autosampler stability, Found, QC high ([2]; plasma QC high, nominal 6.51 (CST A) / 10.99 (CST B) μg.mL^−1, autosampler 24 h at laboratory temperature, CE-MS/MS): 6.76 µg/mL; Autosampler stability, Found, QC low ([2]; plasma QC low, nominal 0.28 (CST A) / 0.47 (CST B) μg.mL^−1, kept in autosampler 24 h at laboratory temperature, pooled human plasma, CE-MS/MS): 0.29 µg/mL; Autosampler stability, Found, QC medium ([2]; plasma QC medium, nominal 2.79 (CST A) / 4.71 (CST B) μg.mL^−1, autosampler 24 h at laboratory temperature, CE-MS/MS): 2.94 µg/mL; Autosampler stability, RE, QC high ([2]; relative error in comparison to fresh sample, plasma QC high, autosampler 24 h at laboratory temperature): 2.3%; Autosampler stability, RE, QC medium ([2]; relative error in comparison to fresh sample, plasma QC medium, autosampler 24 h at laboratory temperature): 3.3%; percentage representation of the CST forms in clinical plasma samples [3]: 76.4%; binding to plasma proteins ([4]; especially to acidic alpha glycoprotein): 56.6%; Freeze-to-thaw stability, Found, QC high ([5]; plasma QC high, nominal 6.51 (CST A) / 10.99 (CST B) μg.mL^−1, three freeze-thaw cycles, CE-MS/MS): 6.54 µg/mL; Freeze-to-thaw stability, Found, QC low ([5]; plasma QC low, nominal 0.28 (CST A) / 0.47 (CST B) μg.mL^−1, three cycles of freezing and thawing at room temperature, CE-MS/MS): 0.29 µg/mL; Freeze-to-thaw stability, Found, QC medium ([5]; plasma QC medium, nominal 2.79 (CST A) / 4.71 (CST B) μg.mL^−1, three freeze-thaw cycles, CE-MS/MS): 2.81 µg/mL; Freeze-to-thaw stability, RE, QC low ([5]; relative error in comparison to fresh sample, plasma QC low, three freeze-thaw cycles): 2.7%; Freeze-to-thaw stability, RE, QC medium ([5]; relative error in comparison to fresh sample, plasma QC medium, three freeze-thaw cycles): 1.7%

Question: Which “absorption from the gastrointestinal tract” value [6] does the source give for colistin sulfate here?
Answer: minimal

Question: For CC(C)CCCCC(=O)N[C@@H](CCN)C(=O)N[C@H](C(=O)N[C@@H](CCN)C(=O)N[C@H]1CCNC(=O)[C@H]([C@@H](C)O)NC(=O)[C@H](CCN)NC(=O)[C@H](CCN)NC(=O)[C@H](CC(C)C)NC(=O)[C@@H](CC(C)C)NC(=O)[C@H](CCN)NC1=O)[C@@H](C)O [CST B, colistin B] (HELM PEPTIDE1{[CC(C)CCCCC(=O)[*:2]].[Dab].T.[Dab].[Dab].[Dab].[dL].L.[Dab].[Dab].T}$PEPTIDE1,PEPTIDE1,5:R3-11:R2$$$V2.0), which “binding to plasma proteins” value [4] is on record?
Answer: 41.7%
